Measured values: publication PMC3636874, “An Antedrug of the CXCL12 Neutraligand Blocks Experimental Allergic Asthma without Systemic Effect in Mice” (The Journal of Biological Chemistry, 2013)

Legend:
[1] = Stability in mouse lung homogenate; format: in vitro ADME; conditions: 37 °C; for half-life at 20 μM: mouse, mouse lung homogenate
Experimental: (§1) Solubility and stability studies were performed on a Gilson HPLC system with a photodiode array detector, an autosampler, and a Valco injector. Data acquisition and processing were performed with Trilution LC version 2.0 software. Measurements were carried out at 21 ± 1 °C. A 2.6-μm Kinetex column (50 × 4.6 mm) was used for stability studies in biological media, and a 5-μm Luna C18(2) column (50 × 4.6 mm) was used for solubility and chemical stability analysis. Both columns were purchased from Phenomenex. The injection volume was 20 μl, the mobile phase flow rate was 2 ml/min, and the following program was applied for the elution: 0–0.2 min, 0% B; 0.2–2.7 min, 0–100% B; 2.7–3.2 min, 100% B; 3.2–3.4 min, 100–0% B; 3.4–6.1 min, 0% B. Solvent B was HPLC grade acetonitrile (Sigma-Aldrich CHROMASOLV). The aqueous solvent contained 0.1% trifluoroacetic acid, and the detection wavelength was 365 nm.
Stability of chalcones was determined in mouse lung homogenate with or without HP-βCD 10% at 37 °C. Lung homogenate was prepared separately with a Fastprep® (Q-BIOgene, Illkirch, France) in PBS (one lung homogenized in 1 ml of buffer). For each compound, the incubation solutions, the sampling, and the extraction conditions were prepared as described under “Stability in Mouse Serum.”

[2] = tested on: CXCL12 action on forskolin-evoked cAMP responses via CXCR4; test: cAMP determination with BRET sensor CAMYEL in HEK EGFP-hCXCR4 cells; format: cell-based; conditions: Homo sapiens; HEK293 EGFP-hCXCR4, 1 μM forskolin, 3 nM CXCL12; read-out: IC50, inhibition of CXCL12 effect on forskolin-evoked cAMP formation
Experimental: CXCR4 receptor coupling to adenylyl cyclase was assessed by measuring the dose-dependent inhibitory effects of chemokine with or without chalcone on forskolin-stimulated cAMP accumulation. To facilitate studies of cAMP regulation, we used a developed bioluminescence resonance energy transfer (BRET) sensor for cAMP, CAMYEL (cAMP sensor using YFP-Epac-RLuc), which can quantitatively and rapidly monitor intracellular concentrations of cAMP in cells ([47]). HEK EGFP-hCXCR4 cells were cultured to ∼80% confluence in 75-cm^2 flasks in MEM with Earle's salt supplemented with 10% fetal calf serum, 2 mM glutamine, and 1% antibiotics (penicillin/streptomycin). Cells were plated on 10-cm plates and transfected with 10 μg of CAMYEL plasmid using the calcium phosphate precipitation method. Two days later, cells were plated in 96-well solid white tissue culture plates (Greiner) at a density of 60,000 cells/well the day before cAMP assay. […] The BRET assay was carried out with a Victor Light plate reader (PerkinElmer Life Sciences). Emission signals from Renilla luciferase and YFP were measured sequentially using a BRET1 filter set (475-30/535-30). […] After 5 min, 10 μl of a Hanks' balanced salt solution of coelenterazine-H (2 μM) were added, and plates were incubated for 10 min at 37 °C before reading.

[3] = Stability in mouse serum; format: in vitro ADME; conditions: 37 °C; for half-life at 20 μM: mouse, mouse serum
Experimental: as §1
Stability of chalcones was determined in mouse serum with or without 10% HP-βCD at 37 °C up to 16 h. For each compound, the 10 mM DMSO stock solution was diluted in serum to a final concentration of 20 μM with 1% DMSO. For the measurements with HP-β-cyclodextrin, a solution of PBS (pH 7.4) containing 10% (v/w) HP-βCD was saturated with compound powder. The saturated solution was then diluted in murine serum to a final compound concentration of 20 μM. The mixture was divided into five aliquots. The incubation of each aliquot was stopped at t0 and 30 min, 1, 2, and 16 h for chalcone 4 and at t0 and 15, 30, 45, and 60 min for CN-chalcone 4 by adding one volume of ice cold acetonitrile. Samples were stirred for 3 min, sonicated for 3 min, and then centrifuged at 4 °C before HPLC injection. The percentage of remaining test compound relative to t0 was measured by monitoring the peak area on the chromatogram.

[4] = with 10% HP-βCD, read-out: Stability half-life (t1/2), lung homogenate, 10% β-cyclodextrine (converted)
[5] = 20 μM, with 10% HP-βCD, read-out: Stability half-life (t1/2), murine serum, 10% β-cyclodextrine (converted)
[6] = 20 μM, read-out: Stability half-life (t1/2), murine serum (converted)

percentage of starting molecule recovered, lung homogenate, 10% β-cyclodextrine ([1]; at 16 h) | percentage of starting molecule recovered, murine serum ([3]; at 16 h) | percentage of starting molecule recovered, murine serum, 10% β-cyclodextrine ([3]; at 16 h) | SMILES | half-life at 20 μM ([1]; 10% HP-βCD, read-out: half-life in lung homogenate in the presence of HP-βCD) | half-life at 20 μM [1, 4] | half-life at 20 μM ([1]; read-out: Stability half-life (t1/2), lung homogenate (converted)) | half-life at 20 μM ([1]; read-out: t½ in lung homogenate) | IC50 [2] | half-life at 20 μM [3, 5] | half-life at 20 μM [3, 6] | half-life at 20 μM ([3]; read-out: t½ in murine serum)
– | – | – | COc1cc(/C=C(\C#N)C(=O)c2ccc(Cl)cc2)ccc1O [CN-chalcone 4, (E)-2-(4-chlorobenzoyl)-3-(4-hydroxy-3-methoxyphenyl)acrylonitrile] | 40 min | 36 min | 24 min | 25 min | 6.9 ± 0.4 µM | 78 min | 18 min | 20 min
66% | 96% | 91% | COc1cc(/C=C/C(=O)c2ccc(Cl)cc2)ccc1O [chalcone 4] | – | > 960 min | – | – | 4.1 ± 0.3 µM | > 960 min | > 960 min | –
